Laboratory results taken from US9181218B2, “Compounds for improved stem cell differentiation into hepatocytes” (Hoffmann-La Roche Inc., priority 2013, dated 2015).

Columns and labels:
[1] = tested on: Human iPSC-derived hepatocytes (iCell® Hepatocytes); assay: Gene expression profiling of iCell Hepatocytes by microfluidic qRT-PCR; format: cell-based; details: multiple doses, FIG. 1
Description: Human iPSC-derived hepatocytes (iCell® Hepatocytes) were exposed to the compounds of formula I with the goal of identifying conditions that favor greater functionality that better models the adult organ. […] Gene expression changes were validated and confirmed in a secondary screen, and functional consequences were queried.
Fresh iCell® Hepatocytes (day 20-23) were plated and cultured according to iCell Hepatocytes Dissociation and Plating User's Guide at 60 k cells per well in 96 well BIO Collagen IV coated plates (BD Cat#354429) 4 Hours post plating Medium C was removed and replaced with a 1:50 Matrigel (Cat#354227) overlay in Medium D. We dosed the cells at 5 uM in Medium D and 1% DMSO 24 hours post plating. Day 3, media was removed and we dosed again at 5 uM. Day 4 we Harvested RNA.
Sample RNA was isolated using TaqMan® Gene Expression Cells-to-CT™ Kit (Life Technologies Cat#4387299) froze at −80 C at various time points post compound treatment. All samples were processed by microfluidic quantitative PCR using the Biomark Fluidigm 96.96 chips (BMK-M-96.96) and ABI Taqman probes. Normalization and model-based expression measurements were calculated using the Biogazelle qBASE and Genorm software. […] Expression values are calculated by the fold change over vehicle control. […]

[2] = Microarray analysis of iCell Hepatocytes treated with the compound of example 1; format: cell-based, Human; details: 2 HOUR
Description: iCell Hepatocytes treated with the compound of example 1 results in the up and down-regulation of a host of genes; including a kinetic effect on interferon-stimulated gene (ISGs) expression. See FIGS. 15-I and 15-II, 16-I and 16-II and 18 and Table 1.

With `O=C(NCc1cccc(F)c1)c1cccc2nc(-c3c(NC[C@@H](O)c4ccccc4)cc[nH]c3=O)[nH]c12` [Example 1, 2-[4-((S)-2-hydroxy-2-phenyl-ethylamino)-2-oxo-1,2-dihydro-pyridin-3-yl]-3H-benzoimidazole-4-carboxylic acid 3-fluoro-benzylamide] as the compound, how does the “expression of genes spanning hepatocyte function” value [1] read?
The value was “global increase of genes spanning hepatocyte function”.

What about the “ABCA9 Raw Est Fold Change” value [2] of the same compound?
Its value is −4.37.

What about the “PCP4 Raw Est Fold Change” value [2] of the same compound?
Its value is −2.44.
